We go through 21 compounds from publication PMC10252614 (International Journal of Molecular Sciences, 2023).

By IC50 is commonly meant the concentration at which inhibition is half-maximal.

One data set addresses T1, human BChE (hBChE) (Homo sapiens, UniProt P06276).
T1 construct: made in house
The data set can be described thus: hBChE inhibition, modified Ellman's method. In kind it is biochemical. Particulars: 10^-6 M. As to the method:
(§1) N-Methylpropargylamine-quinazolines were tested for their inhibitory potency against human AChE (hAChE) and human BChE (hBChE) enzymes using the modified spectrophotometric method of Ellman et al..
(§2) The human recombinant BChE and AChE were prepared at the Department of Toxicology and Military Pharmacy (Faculty of Military Health Sciences, Hradec Kralove, Czech Republic). 5,5′-dithiobis(2-nitrobenzoic acid) (Ellman’s reagent, DTNB), phosphate buffer (PB, pH 7.4), acetylthiocholine (ATC) and butyrylthiocholine (BTC), were purchased from Sigma-Aldrich, Prague, Czech Republic. For measuring purposes, polystyrene Nunc 96-well microplates with a flat-bottom shape (ThermoFisher Scientific, Waltham, MA, USA) were utilized. All the assays were carried out in 0.1 M KH2PO4/K2HPO4 buffer, pH 7.4. Enzyme solutions were prepared at 2.0 units/mL in 2 mL aliquots. The assay medium consisted of a 0.1 M phosphate buffer (pH 7.4), 0.01 M DTNB, the enzyme, and 0.01 M substrate (ATC/BTC iodide solution). Concentration 1 µM was tested and the % of inhibition was calculated. Tested compounds were pre-incubated for 5 min. The reaction was started by immediate addition of 20 μL of the substrate. […] Each concentration was assayed in triplicate. Software GraphPad Prism 5 (San Diego, CA, USA) was used for the statistical data evaluation.

For the next data set, the target named is T2, GluN1/GluN2B receptor (Homo sapiens, UniProt Q05586+Q13224).
T2 construct: expressed in transfected cells; host or cells: HEK293
The data set can be described thus: whole-cell patch-clamp on HEK293 cells expressing GluN1/GluN2B NMDAR. Format: cell-based. Particulars: HEK293, 10 µM, −60 mV, ± SEM (n = 5–6), 100% = full inhibition; read-out: Relative inhibition (RI) of GluN1/GluN2B NMDAR. As to the method: We tested the derivatives by the whole-cell patch-clamp method at a concentration of 10 μM under steady-state conditions in the presence of the saturating concentrations of NMDAR (co-)agonists (L-glutamate and glycine). […] Whole-cell patch-clamp recordings were performed using an Axopatch 200B amplifier (Molecular Devices, LLC., San Jose, CA, USA) at a holding membrane potential of −60 mV. HEK293 cells were co-transfected with DNA vectors encoding human versions of the GluN1-4a (GluN1) and GluN2B subunits and green fluorescent protein (GFP) in a 1:1:1 ratio using 0.9 μL PolyMag reagent (OZ Biosciences SAS, Marseille, France) in 50 μL Opti-MEM I [56, 57]. After 15 min on a magnetic plate, HEK293 cells were trypsinized and resuspended in Opti-MEM I medium containing 1% FBS, 2 mM MgCl2 and 3 mM kynurenic acid (to reduce cell death caused by activation of NMDARs). Electrophysiological measurements were performed 24–48 h after completion of transfection at room temperature. The extracellular recording solution (ECS) contained (in mM): 160 NaCl, 2.5 KCl, 10 HEPES, 10 D-glucose, 0.2 EDTA, and 0.7 CaCl2 (pH 7.3 with NaOH). […] A microprocessor-controlled rapid perfusion system with a time constant for solution exchange around the recorded cell of ~20 ms was used. Currents were low-pass filtered at 2 kHz using an eight-pole Bessel filter, digitized at 5 kHz, and recorded using the pCLAMP 10 program (Molecular Devices, LLC., San Jose, CA, USA). The co-agonist glycine (100 µM) was applied throughout the recording, and the agonist L-glutamate (1 mM) was used to elicit responses of GluN1/GluN2B receptors.
In general terms: Patch clamp records ionic current or voltage across a cell membrane.

A further data set has as its target T3, human AChE (hAChE) (Homo sapiens, UniProt P22303).
T3 construct: made in house
The data set can be described thus: hAChE inhibition, modified Ellman's method. In kind it is biochemical. The note with it: read-out: % of AChE inhibition. As to the method: as §1, §2
In general terms: Ellman's reagent forms a yellow product with free thiols.

The nature of a further data set: in vitro. The note with it: human.

T3 sequence (P22303 32-614): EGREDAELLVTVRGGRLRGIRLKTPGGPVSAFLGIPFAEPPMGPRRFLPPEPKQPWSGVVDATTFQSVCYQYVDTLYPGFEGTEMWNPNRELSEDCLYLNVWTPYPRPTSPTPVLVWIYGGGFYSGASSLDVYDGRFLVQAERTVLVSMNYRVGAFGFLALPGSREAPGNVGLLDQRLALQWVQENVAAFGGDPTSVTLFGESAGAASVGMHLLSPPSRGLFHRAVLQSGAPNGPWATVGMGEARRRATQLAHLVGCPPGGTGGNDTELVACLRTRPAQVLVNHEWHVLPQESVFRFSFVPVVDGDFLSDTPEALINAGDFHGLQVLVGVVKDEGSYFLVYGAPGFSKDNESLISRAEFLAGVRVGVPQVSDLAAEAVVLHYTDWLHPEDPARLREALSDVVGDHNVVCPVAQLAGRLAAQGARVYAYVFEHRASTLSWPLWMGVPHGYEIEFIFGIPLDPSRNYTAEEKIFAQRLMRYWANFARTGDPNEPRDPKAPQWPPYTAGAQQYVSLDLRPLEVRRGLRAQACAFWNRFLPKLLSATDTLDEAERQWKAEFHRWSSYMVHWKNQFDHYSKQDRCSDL
T1 sequence (P06276 29-602): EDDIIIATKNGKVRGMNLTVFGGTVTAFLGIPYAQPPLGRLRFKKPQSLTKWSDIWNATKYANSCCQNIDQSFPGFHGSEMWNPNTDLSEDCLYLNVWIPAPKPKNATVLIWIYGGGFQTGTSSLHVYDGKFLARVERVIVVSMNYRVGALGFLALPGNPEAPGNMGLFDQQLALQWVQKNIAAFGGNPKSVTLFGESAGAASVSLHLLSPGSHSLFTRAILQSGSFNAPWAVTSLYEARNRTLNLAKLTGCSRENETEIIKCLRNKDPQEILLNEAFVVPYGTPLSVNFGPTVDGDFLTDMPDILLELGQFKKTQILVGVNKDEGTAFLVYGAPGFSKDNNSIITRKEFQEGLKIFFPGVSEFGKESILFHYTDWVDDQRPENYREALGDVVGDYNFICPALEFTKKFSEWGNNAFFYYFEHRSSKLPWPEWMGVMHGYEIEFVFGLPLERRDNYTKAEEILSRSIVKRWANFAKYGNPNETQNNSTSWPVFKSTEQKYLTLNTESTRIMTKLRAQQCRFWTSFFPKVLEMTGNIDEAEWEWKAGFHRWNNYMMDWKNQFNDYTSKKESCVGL
T2 sequence (Q13224 27-1484, other chains not shown): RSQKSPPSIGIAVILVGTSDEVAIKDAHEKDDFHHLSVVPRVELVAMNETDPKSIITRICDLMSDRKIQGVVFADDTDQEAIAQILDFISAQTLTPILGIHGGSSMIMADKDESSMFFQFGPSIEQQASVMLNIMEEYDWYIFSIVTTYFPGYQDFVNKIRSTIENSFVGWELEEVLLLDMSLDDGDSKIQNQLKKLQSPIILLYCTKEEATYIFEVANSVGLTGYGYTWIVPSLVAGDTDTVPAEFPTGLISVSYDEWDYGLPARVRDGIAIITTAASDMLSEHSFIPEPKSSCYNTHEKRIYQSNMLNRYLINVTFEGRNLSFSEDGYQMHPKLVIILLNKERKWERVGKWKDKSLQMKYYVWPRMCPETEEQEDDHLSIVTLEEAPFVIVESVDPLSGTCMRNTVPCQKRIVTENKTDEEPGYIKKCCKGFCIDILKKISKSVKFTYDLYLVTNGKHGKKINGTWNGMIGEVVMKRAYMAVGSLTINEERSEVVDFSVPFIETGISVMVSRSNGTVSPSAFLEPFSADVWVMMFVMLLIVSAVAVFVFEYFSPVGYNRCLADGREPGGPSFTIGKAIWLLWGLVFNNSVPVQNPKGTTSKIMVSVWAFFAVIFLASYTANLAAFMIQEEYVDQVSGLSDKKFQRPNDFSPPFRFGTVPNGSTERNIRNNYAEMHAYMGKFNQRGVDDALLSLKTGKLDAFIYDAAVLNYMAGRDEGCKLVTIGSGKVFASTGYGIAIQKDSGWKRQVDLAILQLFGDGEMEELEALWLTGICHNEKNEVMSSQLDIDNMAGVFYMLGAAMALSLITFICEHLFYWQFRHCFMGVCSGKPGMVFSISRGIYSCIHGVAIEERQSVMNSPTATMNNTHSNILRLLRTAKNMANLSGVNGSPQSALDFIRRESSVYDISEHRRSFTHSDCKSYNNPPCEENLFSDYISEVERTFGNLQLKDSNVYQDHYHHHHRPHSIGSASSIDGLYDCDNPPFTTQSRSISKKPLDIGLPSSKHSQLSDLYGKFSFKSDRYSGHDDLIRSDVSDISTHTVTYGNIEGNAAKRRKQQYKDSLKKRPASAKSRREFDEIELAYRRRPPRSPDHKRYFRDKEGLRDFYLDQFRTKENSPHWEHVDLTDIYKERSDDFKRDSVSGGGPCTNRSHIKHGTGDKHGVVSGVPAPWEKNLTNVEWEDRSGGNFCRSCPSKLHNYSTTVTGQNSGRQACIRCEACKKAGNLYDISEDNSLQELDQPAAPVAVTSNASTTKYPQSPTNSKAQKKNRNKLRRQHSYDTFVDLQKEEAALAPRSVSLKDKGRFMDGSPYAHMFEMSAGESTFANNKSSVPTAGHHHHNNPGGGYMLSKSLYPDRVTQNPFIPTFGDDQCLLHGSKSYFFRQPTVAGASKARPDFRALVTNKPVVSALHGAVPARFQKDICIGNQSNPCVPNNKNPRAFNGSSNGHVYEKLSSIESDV

On to `COc1ccc2nc3c(c(N)c2c1)CCCC3` [7-MEOTA, reference compound], for which the inhibition at 1 µM against human BChE (hBChE) is 18%. In addition, at GluN1/GluN2B receptor, the inhibition at 10 µM was around 60%.
For `C#CCN(C)c1nc(N)c2ccccc2n1` [I-6a, N2-methyl-N2-(prop-2-yn-1-yl)quinazoline-2,4-diamine], the inhibition at 1 µM came out at 0% on human BChE (hBChE) and 5% on human AChE (hAChE).
For `C#CCN(C)c1nc(NC)c2ccccc2n1` [I-6b, N2,N4-dimethyl-N2-(prop-2-yn-1-yl)quinazoline-2,4-diamine], in that order: 3% and 5%.
Regarding `C#CCN(C)c1nc(NCC)c2ccccc2n1` [I-6c, N4-ethyl-N2-methyl-N2-(prop-2-yn-1-yl)quinazoline-2,4-diamine], the results for the inhibition at 1 µM on human BChE (hBChE) and on human AChE (hAChE) were 0% and 4%, respectively.
Taken in the same sequence, the figures for `C#CCN(C)c1nc(NC(C)C)c2ccccc2n1` [I-6d, N2-methyl-N2-(prop-2-yn-1-yl)-N4-(propan-2-yl)quinazoline-2,4-diamine] were 1% and 4%.
As to `C#CCN(C)c1nc(NCCOC)c2ccccc2n1` [I-6f, N4-(2-methoxyethyl)-N2-methyl-N2-(prop-2-yn-1-yl)quinazoline-2,4-diamine], the inhibition at 1 µM stood at 1% on human BChE (hBChE) and 5% at human AChE (hAChE).
On to `C#CCN(C)c1nc(NC2CC2)c2ccccc2n1` [I-6g, N4-cyclopropyl-N2-methyl-N2-(prop-2-yn-1-yl)quinazoline-2,4-diamine], for which the results for the inhibition at 1 µM against human BChE (hBChE) and on human AChE (hAChE) were 2% and 4%, respectively.
As to `C#CCN(C)c1nc(N)c2ccc(Cl)cc2n1` [II-6a, 7-chloro-N2-methyl-N2-(prop-2-yn-1-yl)quinazoline-2,4-diamine], the values for the inhibition at 1 µM at human BChE (hBChE) and at human AChE (hAChE) were 2% and 7%, respectively.
For `C#CCN(C)c1nc(NC)c2ccc(Cl)cc2n1` [II-6b, 7-chloro-N2,N4-dimethyl-N2-(prop-2-yn-1-yl)quinazoline-2,4-diamine], in that order: 2% and 15%.
As to `C#CCN(C)c1nc(NCC)c2ccc(Cl)cc2n1` [II-6c, 7-chloro-N4-ethyl-N2-methyl-N2-(prop-2-yn-1-yl)quinazoline-2,4-diamine], the inhibition at 1 µM against human BChE (hBChE) came out at 0%; on human AChE (hAChE) it was 4%.
Take `C#CCN(C)c1nc(NC(C)C)c2ccc(Cl)cc2n1` [II-6d, 7-chloro-N2-methyl-N2-(prop-2-yn-1-yl)-N4-(propan-2-yl)quinazoline-2,4-diamine]: the inhibition at 1 µM on human BChE (hBChE) worked out at 3%; at human AChE (hAChE) it was 1%.
With `C#CCN(C)c1nc(NCCOC)c2ccc(Cl)cc2n1` [II-6f, 7-chloro-N4-(2-methoxyethyl)-N2-methyl-N2-(prop-2-yn-1-yl)quinazoline-2,4-diamine], the inhibition at 1 µM at human BChE (hBChE) was 2%; at human AChE (hAChE), 9%.
Consider `C#CCN(C)c1nc(NC2CC2)c2ccc(Cl)cc2n1` [II-6g, 7-chloro-N4-cyclopropyl-N2-methyl-N2-(prop-2-yn-1-yl)quinazoline-2,4-diamine], for which the inhibition at 1 µM against human BChE (hBChE) was determined as 0%; at human AChE (hAChE) it was 4%.
Take `C#CCN(C)c1nc(NC)c2cc(OC)ccc2n1` [III-6b, 6-methoxy-N2,N4-dimethyl-N2-(prop-2-yn-1-yl)quinazoline-2,4-diamine]: the inhibition at 1 µM on human BChE (hBChE) was 1%; on human AChE (hAChE), 4%.
For `C#CCN(C)c1nc(NCC)c2cc(OC)ccc2n1` [III-6c, N4-ethyl-6-methoxy-N2-methyl-N2-(prop-2-yn-1-yl)quinazoline-2,4-diamine], in that order: 2% and 7%.
As for `C#CCN(C)c1nc(NC(C)C)c2cc(OC)ccc2n1` [III-6d, 6-methoxy-N2-methyl-N2-(prop-2-yn-1-yl)-N4-(propan-2-yl)quinazoline-2,4-diamine], the inhibition at 1 µM on human BChE (hBChE) and at human AChE (hAChE) was 2% throughout.
Turning to `C#CCN(C)c1nc(NCCCC)c2cc(OC)ccc2n1` [III-6e, N4-butyl-6-methoxy-N2-methyl-N2-(prop-2-yn-1-yl)quinazoline-2,4-diamine], the inhibition at 1 µM on human BChE (hBChE) was 1%; at human AChE (hAChE), 8%.
For `C#CCN(C)c1nc(NCCOC)c2cc(OC)ccc2n1` [III-6f, 6-methoxy-N4-(2-methoxyethyl)-N2-methyl-N2-(prop-2-yn-1-yl)quinazoline-2,4-diamine], in that order: 1% and 6%.
`C#CCN(C)c1nc(NC2CC2)c2cc(OC)ccc2n1` [III-6g, N4-cyclopropyl-6-methoxy-N2-methyl-N2-(prop-2-yn-1-yl)quinazoline-2,4-diamine]: the values for the inhibition at 1 µM against human BChE (hBChE) and on human AChE (hAChE) were 0% and 5%, respectively.
Take `C#CCN(C)c1nc(NC2CCCCC2)c2cc(OC)ccc2n1` [III-6h, N4-cyclohexyl-6-methoxy-N2-methyl-N2-(prop-2-yn-1-yl)quinazoline-2,4-diamine]: the inhibition at 1 µM against human BChE (hBChE) was determined as 2%; on human AChE (hAChE) it was 3%.
In the case of `Nc1c2c(nc3ccccc13)CCCC2` [THA, tacrine, reference compound], the IC50 at 24 h in “in vitro” was found to be 122.11 ± 0.02 µM.
